Where a name gives a salt, the structure may show the parent alone.
Columns and labels:
Aspergillus niger = assay: Challenge test (antibiotic activity) against A. niger; type: cell-based; details: for Challenge test A. niger (antibiotic activity grade): day on which all strains completely died, inoculum 1.0×10^5 cells/ml, 30° C., sampling days 1, 2, 3, 7, sample without zinc pyrithione, pH 5.5 to 9.0
Procedure: (§1) Respective samples were inoculated with three kinds of bacteria and two kinds of fungus and cultured for 7 days in order to measure antibiotic activity. On the first, second, third and seventh days, sampling was conducted, the sample was spread on a solid medium and antibiotic activity was checked. Strains used to measure antibiotic activity were Escherichia coli, Staphylococcus aureus, Pseudomonas aeruginosa for bacteria, and Candida albicans and Aspergillus niger for fungus. Regarding the media used respectively for the strains, TSA (tryptic soy agar) and NB (nutrient broth) were used for the three types of bacteria, and SDA (Sabouraud dextrose agar) and YM (yeast extract and malt extract) were used for Candida albicans (C. albicans), and SDA (Sabouraud dextrose agar) and MD (malt extract and dextrose) were used for Aspergillus niger (A. niger).
(§2) Antibiotic activity was evaluated based on the day on which all strains completely died, rather than lived and grew in the sample spread on the solid medium. First day death was considered to be excellent, second day death was considered to be good, third day death was considered to be medium, seventh day death was considered to be bad and no death until the seventh day was considered to be extremely bad.
(§3) A more detailed test method is as follows. […] 50 g of an aqueous dispersion supplemented with a suitable concentration of antibiotic agent was added to the container to prepare a sample. In consideration of the test method, in order to test zinc pyrithione having antibiotic activity, antibiotic activity of zinc pyrithione was preferably removed using a neutralization agent, but water was inevitably used to adjust a predetermined volume without adding zinc pyrithione due to absence of a suitable neutralization agent.
(§4) The prepared sample was inoculated with 1.0×10^6 cells/ml of E. coli, S. aureus and P. aeruginosa, and with 1.0×10^5 cells/ml of C. albicans and A. niger. Then, E. coli, S. aureus and P. aeruginosa were cultured at 37° C., while C. albicans and A. niger were cultured at 30° C. At the point of times of 1, 2, 3 and 7 days after culture, […] of the sample was obtained and spread on a solid medium and E. coli, S. aureus and P. aeruginosa were then cultured at 37° C. for 1 day for, and C. albicans and A. niger were cultured at 30° C. for 2 days. Then, whether the strains were alive or dead was checked. The respective antiseptics were used with reference to optimal pH, dosage and MIC recommended by the company of manufacture, wherein the test pH conditions were pH 5.5 to 9.0 at which zinc pyrithione was stable.

Staphylococcus aureus = assay: Challenge test (antibiotic activity) against S. aureus; type: cell-based; details: day on which all strains completely died; inoculum 1.0×10^6 cells/ml, 37° C., sampling days 1, 2, 3, 7; sample without zinc pyrithione, pH 5.5 to 9.0
Procedure: as §1, §2, §3, §4

Escherichia coli = assay: Challenge test (antibiotic activity) against E. coli; type: cell-based; details: day on which all strains completely died; inoculum 1.0×10^6 cells/ml, 37° C., sampling days 1, 2, 3, 7; sample without zinc pyrithione, pH 5.5 to 9.0
Procedure: as §1, §2, §3, §4

Pseudomonas aeruginosa = assay: Challenge test (antibiotic activity) against P. aeruginosa; type: cell-based; details: day on which all strains completely died; inoculum 1.0×10^6 cells/ml, 37° C., sampling days 1, 2, 3, 7; sample without zinc pyrithione, pH 5.5 to 9.0
Procedure: as §1, §2, §3, §4

[1] = Dispersion stability by Turbiscan (Turbiscan stability index); type: physicochemical; details: zinc pyrithione aqueous dispersion with the antiseptic stored at 60° C. for 2 weeks, lower = more stable, 0 = no variation
Procedure: (§5) First, a zinc pyrithione aqueous dispersion including an antiseptic which was identified to have antiseptic activity was prepared and then stored at room temperature (R.T.), at a temperature ranging from 10° C. to 20° C., or 60° C., and variation in physical properties related to stability and dispersibility were checked.
(§6) Variation in physical properties was determined depending on whether or not assay, viscosity, pH and particle size were changed, and variation in dispersibility was determined by checking layer separation degree using centrifugation and measuring dispersion stability using Turbiscan for detecting particle size variation and phase separation.
Meanwhile, from the result of determination of stability via separate testing of the zinc pyrithione aqueous dispersion composition using the Turbiscan, it could seen that the result obtained by storing at 60° C. for 2 weeks was similar to the result obtained by storing at room temperature for 3 months. Therefore, stability of the zinc pyrithione aqueous dispersion was compared based on stability index (Turbiscan stability index) associated with the result obtained by storing the test subject substances at 60° C. for 2 weeks.
In addition, the stability of conventionally used antiseptics was measured as Turbiscan-related stability and the result thus obtained is shown as a stability index in the following Table 2. […]

Candida albicans = assay: Challenge test (antibiotic activity) against C. albicans; type: cell-based; details: day on which all strains completely died; inoculum 1.0×10^5 cells/ml, 30° C., sampling days 1, 2, 3, 7; sample without zinc pyrithione, pH 5.5 to 9.0
Procedure: as §1, §2, §3, §4

[2] = Stability of zinc pyrithione aqueous dispersion: layer separation degree via centrifugation, naked eye; type: physicochemical; details: zinc pyrithione aqueous dispersion including the antiseptic, layer separation degree (supernatant height / total height) via centrifugation
Procedure: as §5, §6
Stability was evaluated by checking a layer separation degree (production of supernatant) using centrifugation by the naked eye and was divided into grades based on the proportion of the height of the layer-separated supernatant with respect to the total height of the sample. With respect to the grades, layer separation degree (production of supernatant) of less than 5% was regarded as “high”, layer separation degree of 10% or less was regarded as “medium-high”, layer separation degree of 15% or less was regarded as “medium”, layer separation degree of 20% or less was regarded as “medium-low” and layer separation degree of higher than 20% was regarded as “low”.

Molecule	Challenge test A. niger (antibiotic activity grade) (Aspergillus niger)	Challenge test S. aureus (antibiotic activity grade) (Staphylococcus aureus)	Challenge test E. coli (antibiotic activity grade) (Escherichia coli)	Challenge test P. aeruginosa (antibiotic activity grade) (Pseudomonas aeruginosa)	Stability index at 60° C. × 2 weeks [1]	Challenge test C. albicans (antibiotic activity grade) (Candida albicans)	Stability of zinc pyrithione aqueous dispersion [2]	Antibiotic activity to A. niger (Aspergillus niger; conclusion in words from the challenge test)
O=S([O-])S(=O)(=O)[O-].[Na+].[Na+] [Sodium metabisulfite]	Good (second day death was considered to be good)	Good (second day death was considered to be good)	Good (second day death was considered to be good)	Good (second day death was considered to be good)				
CC1(C)C(=O)N(CO)C(=O)N1CO [DMDMH, dimethylol dimethylhydantoin, reference compound]	Excellent (First day death was considered to be excellent)	Excellent (First day death was considered to be excellent)	Excellent (First day death was considered to be excellent)	Excellent (First day death was considered to be excellent)	3.9	Excellent (First day death was considered to be excellent)	High (layer separation degree (production of supernatant) of less than 5% was regarded as “high”)	
C/C=C/C=C/C(=O)[O-].[K+] [Potassium sorbate]	Good (second day death was considered to be good)	Good (second day death was considered to be good)	Good (second day death was considered to be good)	Good (second day death was considered to be good)				
O=S([O-])[O-].[Na+].[Na+] [Sodium sulfite]	Good (second day death was considered to be good)	Good (second day death was considered to be good)	Good (second day death was considered to be good)	Good (second day death was considered to be good)			High (layer separation degree (production of supernatant) of less than 5% was regarded as “high”)	
Cc1ncc(C[n+]2csc(CCO)c2C)c(N)n1 [Thiamine dilauryl sulfate, thiamine dilauryl sulphate]	Bad (seventh day death was considered to be bad)	Excellent (First day death was considered to be excellent)	Good (second day death was considered to be good)	Good (second day death was considered to be good)		Good (second day death was considered to be good)		vulnerable
Ethylhexyl glycerin	Medium (third day death was considered to be medium)	Good (second day death was considered to be good)	Good (second day death was considered to be good)	Extremely bad (no death until the seventh day was considered to be extremely bad)		Good (second day death was considered to be good)		
Cn1sccc1=O [MIT, methylisothiazolinone, reference compound]	Excellent (First day death was considered to be excellent)	Excellent (First day death was considered to be excellent)	Excellent (First day death was considered to be excellent)	Excellent (First day death was considered to be excellent)	3.9	Excellent (First day death was considered to be excellent)	High (layer separation degree (production of supernatant) of less than 5% was regarded as “high”)	
OCc1ccccc1 [Benzyl alcohol]							Medium-low (layer separation degree of 20% or less was regarded as “medium-low”)	
CCCCC(O)CO (stereo not shown) [1,2-hexanediol]							Medium (layer separation degree of 15% or less was regarded as “medium”)	
O=C([O-])c1ccccc1.[Na+] [Sodium benzoate]	Good (second day death was considered to be good)	Good (second day death was considered to be good)	Good (second day death was considered to be good)	Good (second day death was considered to be good)				
O=C([O-])c1ccccc1O.[Na+] [Sodium salicylate]	Good (second day death was considered to be good)	Good (second day death was considered to be good)	Good (second day death was considered to be good)	Good (second day death was considered to be good)				
CCCCCCC(O)CO (stereo not shown) [1,2-octanediol]							Medium (layer separation degree of 15% or less was regarded as “medium”)	

From patent publication US20170312293A1, “ANTIMICROBIAL WATER DISPERSIBLE COMPOSITION COMPRISING ZINC PYRITHIONE” (KOLON LIFE SCIENCE, INC., priority 2014, published 2017)
